Experiment [1] concerns the target T1, recombinant human LTA4 hydrolase (rhLTA4H) (Homo sapiens, UniProt P09960).
T1 construct: made in house; host or cells: Spodoptera frugiperda (Sf-9) cells, baculovirus (pFastBac1)
T1 sequence (P09960 1-611): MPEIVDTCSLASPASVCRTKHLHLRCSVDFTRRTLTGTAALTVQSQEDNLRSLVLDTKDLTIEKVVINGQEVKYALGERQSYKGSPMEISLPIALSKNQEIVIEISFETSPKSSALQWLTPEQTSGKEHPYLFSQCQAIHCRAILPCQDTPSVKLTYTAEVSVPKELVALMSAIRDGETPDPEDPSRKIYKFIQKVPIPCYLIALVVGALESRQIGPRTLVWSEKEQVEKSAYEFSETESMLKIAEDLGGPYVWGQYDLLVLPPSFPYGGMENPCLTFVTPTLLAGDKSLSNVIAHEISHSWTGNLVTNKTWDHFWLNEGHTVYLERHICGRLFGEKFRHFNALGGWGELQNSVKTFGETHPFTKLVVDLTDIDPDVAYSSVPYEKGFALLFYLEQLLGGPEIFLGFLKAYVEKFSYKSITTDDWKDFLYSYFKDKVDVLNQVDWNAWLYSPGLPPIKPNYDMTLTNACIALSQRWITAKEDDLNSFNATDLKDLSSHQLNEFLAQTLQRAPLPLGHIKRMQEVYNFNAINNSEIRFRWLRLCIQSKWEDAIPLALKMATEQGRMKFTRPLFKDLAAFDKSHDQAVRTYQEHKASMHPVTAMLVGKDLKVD
The experiment in a line: Recombinant human LTA4 hydrolase assay for LTA4 hydrolase inhibitor activity. The class given is biochemical. The settings on record: rhLTA4H, LTB4 by immunoassay; single determination or average of two or more; mark after value = form tested: ′ free base, ″ hydrochloride, ^ formate; read-out: IC50. Put shortly: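 LTB4 formation, measured by enzyme immunoassay, was the read-out. The enzyme, recombinant human LTA4H expressed in Sf-9 insect cells (10 ng per reaction), was exposed to compound for 10 min at room temperature before hydrolysed-ester LTA4 substrate was added for 30 min. Enzyme-free negatives were included.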

Experiment [2] deals with ex vivo calcium ionophore-stimulated LTB4 production in whole blood. The experiment in a line: Murine arachidonic acid-induced inflammation model: ex vivo stimulated LTB4 production in blood. The arrangement: species or system Balb/c mice. Particulars: Mus musculus; 30 mg/kg oral gavage; blood diluted 1:1, A23187 stimulated ex vivo; percent inhibition of LTB4 production; read-out: % Inh. LTB4. As for the experimental part: (§1) Assay 3: Murine Arachidonic Acid-Induced Inflammation Model
(§2) LTA4H inhibitor compounds of the present invention were dissolved in 20% cyclodextran/H2O at a concentration of 3 mg/mL. The solutions were administered by oral gavage to female Balb/c mice weighing approximately 20 grams each (0.2 mL per mouse, 30 mg of LTA4H inhibitor compound per kg). Sixty minutes after being administered an LTA4 inhibitor, each mouse received topical application of 20 μL of arachidonic acid (100 mg/mL in acetone) to the left ear and 20 μL of acetone only to the right ear. After 3 h, the mice were sacrificed, blood was withdrawn in heparinized syringes, and 8 mm ear biopsies were taken. Ear biopsies were weighed to determine edema and then frozen at −80° C. until needed for determination of neutrophil influx.
The microtiter plate contents were incubated for 30 min at 37° C. in a humidified incubator. The reaction was terminated by centrifugation (833×g, 10 min at 4° C.). Supernatants were analyzed for LTB4 by a commercially available enzyme-linked immunoassay (Cayman Chemical Co.) in accordance with the manufacturer's instructions. The percent inhibition of ex vivo stimulated LTB4 production (% Inh. LTB4) was determined by comparison to animals treated identically except that the solution administered by oral gavage was devoid of inhibitor compound.

In experiment [3] the test system is arachidonic acid-induced neutrophil influx in murine ear tissue. The experiment in a line: Murine arachidonic acid-induced inflammation model: neutrophil influx (myeloperoxidase) in ear. The class given is in vivo, Balb/c mice. Particulars: Mus musculus, read-out: % Inh. MPO. As for the experimental part: as §1, §2
Neutrophil influx was quantified by measuring the activity of myeloperoxidase (MPO), a neutrophil-specific enzyme. […] Debris was removed by centrifugation at 14000×g for 10 min. […] The microtiter plate contents were held at room temperature until the sample with the highest concentration of MPO reached an absorbance value of 0.4 at 650 nm. The reaction was stopped by addition of 50 μL 1 M H2SO4 to each sample well, and the myeloperoxidase activity in each sample was determined from the absorbance at […]. The background value from the right ear, treated only with acetone, was subtracted from that for the left ear, treated with arachidonic acid in acetone, for each animal. The percent inhibition of neutrophil influx (% Inh. MPO) by compounds of the invention was determined by comparison to animals treated identically, except that the solution administered by oral gavage was devoid of inhibitor compound. All compounds were assayed in their free base form.

In experiment [4] the test system is LTB4 production in murine blood (LTA4H). The experiment in a line: LTB4 production by calcium ionophore-stimulated murine blood for LTA4H inhibitor activity. The class given is cell-based, CD-1 mice. The settings on record: Mus musculus. Put shortly:
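LTB4 was measured by ELISA in supernatants after calcium ionophore A23187 stimulation (final 7 μg/mL, 30 min, 37° C) of CD-1 mouse blood collected on heparin. Compound was preincubated with the blood for 15 min beforehand. Values come from one determination or average several.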

Setting [5] is: 30 mg/kg oral gavage, 60 min before topical arachidonic acid, ear biopsy after 3 h, percent inhibition of neutrophil influx.
Setting [6] is: murine blood diluted 1 in 15, A23187 stimulated, single determination or average, mark after value = form tested: ′ free base, ″ hydrochloride, ^ formate, read-out: IC50.

Where a name gives a salt, the structure may show the parent alone. Read-outs that look alike come from different tables or passages of the source.

`CC(=O)N1C[C@@H]2CC[C@H]1CN2Cc1coc2cc(Oc3nc4ncccc4s3)ccc12` [Example 237, (1S,4S)1-{5-[6-(Thiazolo[4,5-b]pyridin-2-yloxy)-benzofuran-3-ylmethyl]-2,5-diaza-bicyclo[2.2.2]oct-2-yl}-ethanone]: the half-maximal inhibitory concentration (IC50) in experiment [1] was 2 nM; in experiment [4] (setting [6]), 22 nM. Moreover, the results for the inhibition at 30 mg/kg in experiment [2] and in experiment [3] (setting [5]) were 90% and 81%, respectively.

Consider `O=C(O)C1CCN(Cc2coc3cc(Oc4nc5ccccc5s4)ccc23)CC1` [Example 248, 1-[6-(Benzothiazol-2-yloxy)-benzofuran-3-ylmethyl]-piperidine-4-carboxylic acid formate], for which the results for the half-maximal inhibitory concentration (IC50) in experiment [1] and in experiment [4] were 12 nM and 20 nM, respectively. Further, the inhibition at 30 mg/kg is 83% in experiment [2] and 90% in experiment [3] (Neutrophil).

On to `CC(=O)N1C[C@H]2C[C@@H]1CN2C(=O)c1cc2cc(Oc3nc4ncccc4s3)ccc2o1` [Example 366, (1R,4R)-1-{5-[5-(Thiazolo[4,5-b]pyridin-2-yloxy)-benzofuran-2-carbonyl]-2,5-diaza-bicyclo[2.2.1]hept-2-yl}-ethanone], for which the figures for the half-maximal inhibitory concentration (IC50) in experiment [1] and in experiment [4] (setting [6]) were 20 nM and 61 nM, respectively. Further, the inhibition at 30 mg/kg was 78% in experiment [2] and 50% in experiment [3] (setting [5]).

With `CC(=O)N1C[C@H]2CC[C@@H](C1)N2Cc1cc2ccc(Oc3nc4ncccc4s3)cc2o1` [Example 119, meso-1-{8-[6-(Thiazolo[4,5-b]pyridin-2-yloxy)-benzofuran-2-ylmethyl]-3,8-diaza-bicyclo[3.2.1]oct-3-yl}-ethanone], the IC50 in experiment [1] stood at 36 nM; in experiment [4] (setting [6]), 220 nM. For the same compound, the inhibition at 30 mg/kg in experiment [2] was 78%; in experiment [3] (setting [5]) it was 83%.

`Fc1cnc2nc(Oc3ccc4c(CN5CCOCC5)c[nH]c4c3)sc2c1` [Example 58, 6-Fluoro-2-(3-morpholin-4-ylmethyl-1H-indol-6-yloxy)-thiazolo[4,5-b]pyridine]: the IC50 in experiment [1] was 10 nM; in experiment [4] (setting [6]), 250 nM. Further, the results for the inhibition at 30 mg/kg in experiment [2] and in experiment [3] (setting [5]) were 84% and 57%, respectively.

Turning to `CC(=O)N1C[C@@H]2C[C@H]1CN2Cc1cc2cc(Oc3nc4ncccc4s3)ccc2o1` [Example 95, (1S,4S)-1-{5-[5-(Thiazolo[4,5-b]pyridin-2-yloxy)-benzofuran-2-ylmethyl]-2,5-diaza-bicyclo[2.2.1]hept-2-yl}-ethanone], the IC50 in experiment [1] was found to be 5 nM; in experiment [4] (setting [6]), 26 nM. Also, the inhibition at 30 mg/kg is 80% in experiment [2] and 79% in experiment [3] (setting [5]).

In the case of `C[C@H]1COCCN1Cc1c[nH]c2cc(Oc3nc4ncccc4s3)ccc12` [Example 41, (3S)-2-[3-(3-Methyl-morpholin-4-ylmethyl)-1H-indol-6-yloxy]-thiazolo[4,5-b]pyridine], the results for the IC50 in experiment [1] and in experiment [4] (setting [6]) were 4 nM and 34 nM, respectively. Moreover, the inhibition at 30 mg/kg in experiment [2] was found to be 65%; in experiment [3] (setting [5]), 62%.

Consider `NC(=O)N[C@H]1C[C@H]2CC[C@@H](C1)N2Cc1cc2cc(Oc3nc4ncccc4s3)ccc2o1` [Example 103, meso-endo-N-{8-[5-(Thiazolo[4,5-b]pyridin-2-yloxy)-benzofuran-2-ylmethyl]-8-aza-bicyclo[3.2.1]oct-3-yl}-urea], for which the values for the half-maximal inhibitory concentration (IC50) in experiment [1] and in experiment [4] (setting [6]) were 4 nM and 132 nM, respectively. In addition, the inhibition at 30 mg/kg in experiment [2] is 0%; in experiment [3] (setting [5]), 18%.

With `CC(C)(O)C1CCN(Cc2coc3cc(Oc4nc5ncccc5s4)ccc23)CC1` [Example 218, 2-{1-[6-(Thiazolo[4,5-b]pyridin-2-yloxy)-benzofuran-3-ylmethyl]-piperidin-4-yl}-propan-2-ol], the figures for the IC50 in experiment [1] and in experiment [4] (setting [6]) were 5 nM and 53 nM, respectively. The inhibition at 30 mg/kg stood at 83% in experiment [2] and 98% in experiment [3] (setting [5]).

In the case of `NC(=O)N1CC2CCC(C1)N2C(=O)c1coc2cc(Oc3nc4ncccc4s3)ccc12` [Example 374, meso-8-[6-(Thiazolo[4,5-b]pyridin-2-yloxy)-benzofuran-3-carbonyl]-3,8-diaza-bicyclo[3.2.1]octane-3-carboxylic acid amide], the IC50 in experiment [1] stood at 11 nM; in experiment [4] (setting [6]) it was 50 nM. Further, the inhibition at 30 mg/kg in experiment [2] was determined as 7%; in experiment [3] (setting [5]), 37%.

Consider `C[C@H]1COCCN1Cc1coc2cc(Oc3nc4ncccc4s3)ccc12` [Example 159, (S)-2-[3-(3-Methyl-morpholin-4-ylmethyl)-benzofuran-6-yloxy]-thiazolo[4,5-b]pyridine], for which the values for the half-inhibitory concentration (IC50) in experiment [1] and in experiment [4] (setting [6]) were 16 nM and 79 nM, respectively. Besides, the values for the inhibition at 30 mg/kg in experiment [2] and in experiment [3] (setting [5]) were 83% and 78%, respectively.

For `CC(=O)N1C[C@H]2CC[C@@H](C1)N2Cc1cc2cc(Oc3nc4ncccc4s3)ccc2o1` [Example 93, meso-1-{8-[5-(Thiazolo[4,5-b]pyridin-2-yloxy)-benzofuran-2-ylmethyl]-3,8-diaza-bicyclo[3.2.1]oct-3-yl}-ethanone], the IC50 in experiment [1] came to 3 nM; in experiment [4] (setting [6]) it was 23 nM. Besides, the inhibition at 30 mg/kg in experiment [2] is 85%; in experiment [3] (setting [5]) it was 87%.

`CC(=O)N1CCN(CCc2coc3cc(Oc4nc5ncccc5s4)ccc23)CC1` [Example 257, 1-(4-{2-[6-(Thiazolo[4,5-b]pyridin-2-yloxy)-benzofuran-3-yl]-ethyl}-piperazin-1-yl)-ethanone]: the results for the 50% inhibitory concentration (IC50) in experiment [1] and in experiment [4] (setting [6]) were 3 nM and 169 nM, respectively. For the same compound, the inhibition at 30 mg/kg came out at 68.7% in experiment [2] and 87% in experiment [3] (setting [5]).

Take `CC(=O)N1CCC2(CCN(Cc3cc4cc(Oc5nc6ncccc6s5)ccc4o3)CC2)CC1` [Example 167, 1-{9-[5-(Thiazolo[4,5-b]pyridin-2-yloxy)-benzofuran-2-ylmethyl]-3,9-diaza-spiro[5.5]undec-3-yl}-ethanone]: the 50% inhibitory concentration (IC50) in experiment [1] was determined as 88 nM; in experiment [4] (setting [6]), 220 nM. Besides, the inhibition at 30 mg/kg in experiment [2] worked out at 78%; in experiment [3] (setting [5]) it was 77%.

For `CC(=O)N1CCCN(Cc2coc3cc(Oc4nc5ncccc5s4)ccc23)CC1` [Example 182, 1-{4-[6-(Thiazolo[4,5-b]pyridin-2-yloxy)-benzofuran-3-ylmethyl]-[1,4]diazepan-1-yl}-ethanone], the IC50 in experiment [1] is 9 nM; in experiment [4] (setting [6]), 39 nM. Further, the inhibition at 30 mg/kg turned out to be 85% in experiment [2] and 67% in experiment [3] (setting [5]).

The values are drawn from patent US8399465B2, “Compounds with two fused bicyclic heteroaryl moieties as modulators of leukotriene A4 hydrolase” (Janssen Pharmaceutica NV, priority 2009, dated 2013).
